The AptaBench aptamer set (doi:10.1093/nar/gkaf219)

Legend:
Settings in all cases: 10 mM Tris-HCl, pH 7.4
[1] = tested on: DNA aptamer or structured DNA GGGACGACGCGTACCTGTGGTAGTCGTACGTCGTTCAAGTCGTCCC
[2] = tested on: DNA aptamer or structured DNA GGGACGACGGGATGTGGTGTCAGTCATGATGGGATCAAGTCGTCCC
[3] = tested on: DNA aptamer or structured DNA GGGACGACGCGTACCTGTGGTAGTTGTACGTCGTTCAAGTCGTCCC
[4] = tested on: DNA aptamer or structured DNA GGGACGACATGGGATGGAGCTATGCGAGCATGTGGTGTGTCGTCCC
[5] = tested on: DNA aptamer or structured DNA GGGACGACTAGTGCCTTCGCGTTGTTCGGGAATCCGGTTCCGTCGTCCC
[6] = tested on: DNA aptamer or structured DNA CTTACGACGGTGGGGGGTTGGTAGGGGAGGAGCGCATCGTCGTAAG
Throughout, for binding call: call rule not given here.

## CC(=O)Nc1ccc(O)cc1
[1]
  binding call: no binding
[2]
  binding call: no binding

## CCN(CC)CCOC(=O)c1ccc(N)cc1
[1]
  binding call: no binding

## O=C1CC[C@@]2(O)[C@H]3Cc4ccc(O)c5c4[C@@]2(CCN3CC2CC2)[C@H]1O5
[1]
  binding call: no binding
[3]
  binding call: no binding

## C=C[C@H]1CN2CC[C@@H]1C[C@H]2[C@H](O)c1ccnc2ccc(OC)cc12
[4]
  binding call: binds
[5]
  binding call: no binding

## CN(C)CCOC(c1ccccc1)c1ccccc1
[5]
  binding call: no binding

## C=CCN1CC[C@]23c4c5ccc(O)c4O[C@H]2C(=O)CC[C@@]3(O)[C@H]1C5
[4]
  binding call: no binding
[1]
  binding call: no binding
[3]
  binding call: no binding

## NCCc1c[nH]c2ccc(O)cc12
[6]
  binding call: no binding
[5]
  binding call: no binding

## NCC(O)c1ccc(O)c(O)c1 (stereo unspecified)
[5]
  binding call: no binding

## COc1ccc2c3c1O[C@H]1C(=O)CC[C@@]4(O)[C@@H](C2)N(C)CC[C@]314
[4]
  Kd: 3.19 µM
[2]
  Kd: 3.65 µM

## CCOC(=O)c1ccc(N)cc1
[6]
  binding call: no binding

## Cn1c(=O)c2c(ncn2C)n(C)c1=O
[6]
  binding call: no binding

## NCCc1ccc(O)c(O)c1
[6]
  binding call: no binding

## CN1CC[C@]23c4c5ccc(O)c4O[C@H]2[C@@H](O)C=C[C@H]3[C@H]1C5
[5]
  Kd: 19.5 µM

## c1ccc([C@H]2CN3CCSC3=N2)cc1
[3]
  binding call: no binding

## Cc1nnc2n1-c1ccc(Cl)cc1C(c1ccccc1)=NC2
[3]
  binding call: no binding

## COC(=O)[C@@H]1C2CCC(C[C@@H]1OC(=O)c1ccccc1)N2C (stereo partly specified)
[6]
  Kd: 1100 nM
[4]
  binding call: no binding

## CC(=O)Oc1ccc2c3c1O[C@H]1[C@@H](OC(C)=O)C=C[C@H]4[C@@H](C2)N(C)CC[C@@]341
[1]
  Kd: 4.52 µM
[3]
  Kd: 4.13 µM
